Source: patent US10485814B2, “Nicotinamide riboside analogs and pharmaceutical compositions and uses thereof” (GlaxoSmithKline Intellectual Property (No. 2) Limited, priority 2014, dated 2019)
Entries after “also recorded” stand apart in the source; their conditions may differ.

Key:
Format in all cases: cell-based
[1] = test system: HaCaT cells (a human keratinocyte cell line); test: Intracellular NAD measurement in HaCaT cells (ADPR cyclase enzymatic assay, absorbance 405 nm)
Description: HaCaT cells (AddexBio Technologies, San Diego, Calif., Passage 16-19) were grown in Medium DMEM/GlutMax (Life technologies, Grand Island, N.Y.) supplemented with 10% FBS (Life technologies) and Non-essential amino acids (NEAA, Life technologies) and then seeded in 12-well plates (Corning, Tewksbury, Mass.) with a density at 2×10^5 cells per well and 2 ml of culture medium in each well for overnight.
Stock solution of dihydronicotinamide riboside (NRH, GSK3008320A, GSK, RTP, NC) was prepared in ethanol at 100 mM (25.6 mg/ml) and stored at −20° C. Cells were treated with different concentrations of NRH for 3 hrs, washed twice with PBS containing 5 mM EDTA, and then subject to Nicotinamide adenine dinucleotide (NAD) measurement. In brief, acetonitrile (ACN) lysis buffer (Ammonium Acetate (50 mM) and 90% acetonitrile) was added to each well (200 μl/well) to lyse the cells at RT for 5-10 mins by gently rotating on a culture plate shaker at a low speed. Enzyme master mix (300 μM of 5-Amino-(3,4′-bipyridin)-6(1H)-one (Inamrinone) (Sigma-Aldrich), a substrate for ADP ribosyl cyclase (ADPR cyclase)) and 30 nM ADPR Cyclase (Sigma, St. Louis, Mo.), 7.5 μM of N-(2-fluoro-4-(methylsulfonyl)phenyl)-2-methyl-6-(thiazol-5-yl)isonicotinamide (a CD38 inhibitor) in 75 mM HEPES pH7 buffer (Life Technologies)) was added to the lysed cells (400 μl of enzyme master mix/well). Enzymatic reaction was incubated at RT for ˜30 min. At the end of incubation, the supernatant (200 μl) of the reaction solution from each well was transferred to each well of a 96-well plate and absorbance was read twice in the 96-well plate at 405 nm using a plate reader (Spectra Maxplus, Molecular Devices, Sunnyvale, Calif.). A mixture of enzyme master mix and ACN extraction solution at 2:1 ratio was used as a blank reference. NAD (Sigma) was used as a positive control.
HaCaT cells were grown as described in example 23 in the regular cell culture DMEM medium as described earlier or in the Epilife medium without nacinamide (Life Technologies). Cells were treated with different concentrations of NRH or niacinamide (NIA, DSM nutritional products) for 3 hrs, washed twice with PBS containing 5 mM EDTA, and then subject to Nicotinamide adenine dinucleotide (NAD) measurement as described in example 23. A mixture of enzyme master mix and ACN extraction solution at 2:1 ratio for a blank reference. NAD (Sigma) was used as a positive control. […] Both the CD38 inhibitor and Niacinamide increased NAD in the HaCaT cells cultured in the Vit B3 depleted culture medium, and the induction of NAD by niacinamide was dose-dependent (solid bars). However, the induction of NAD by niacinamide (highest at ˜1.5 fold) was low compared to those by NRH. Therefore, NRH is a stronger NAD inducer compared to a CD38 inhibitor or Niacinamide.
HaCaT cells were grown in regular culture media as described in example 1 and seeded in 12-well plates with density at 2×10^5 cells per well and 1 ml of culture medium in each well. NRH stock solution was prepared in ethanol at 100 mM (25.6 mg/ml) and stored at −20° C. Stock solutions of NRH esters were made at 50 mM in DMSO (see FIG. 9B for compound info). Cells were treated with NRH esters and NRH at 150 μM for 6 and 16 hrs, washed twice with PB S containing 5 mM EDTA, and then subject to Nicotinamide adenine dinucleotide (NAD) measurement as described in example 23.
HaCaT cells were grown in regular culture media as described above and seeded in 12-well plates with density at 2×10^5 cells per well and 1 ml of culture medium in each well. NRH stock solution was prepared in ethanol at 100 mM (25.6 mg/ml) and stored at −20° C. NRH (200 μM) was used as a positive control. Because of the possible solubility issue related to NRH monoC16, fatty acid-free bovine serum albumin (defatted BSA, Sigma) was used as a carrier for the compound. NRH monoC16 stock solution (100×) was complexed with defatted BSA ([…]) prior to the treatment, resulting in a NRH monoC16 stock solution (10 ×). […]

[2] = test system: Reconstructed human epidermis (EpiDerm, EPI-200); test: UVB-induced inflammation mediators in reconstructed epidermal equivalents; settings: topical 1 hr pre-treatment, NRH 0.1% or niacinamide 3%; UVB 150 mJ/cm^2; media 6 hr post irradiation
Text: Solar Ultraviolet (UV) light exposure on skin causes photoaging, sunburn, DNA damages and carcinogenesis. UV radiation (UVR) also results in inflammation, which can be measured in vitro by pro-inflammatory mediators, e.g., TNF-α, IL-8. The in vitro reconstructed human epidermis (RHE) model is used to evaluate the anti-inflammatory effect of NRH.
Reconstructed human epidermis (EpiDerm, EPI-200, made of normal human epidermal keratinocytes, MatTek, Ashland, Mass.), were placed into media (EPI-100-ASY, 1.0 ml/well of 6-well plates) and incubated overnight at 37° C./5% CO2. The media was replenished with fresh culture media prior to study. NRH at 0.1% and niacinamide at 3% in vehicle (50% H2O/35% ethanol/15% propylene glycol, v/v/v) were applied topically at 6 μl and then gently spread onto the skin equivalents (˜20 rotations) using the rubber side of a plunger of 1 ml syringe. Vehicle was served as an untreated control. After 1 hr pre-treatment with NRH, niacinamide, or vehicle control, the EpiDerm tissues were transferred to a sterile 6-well plate containing 1 ml of DPBS per well and then exposed to UVB at 150 mJ/cm^2. The Newport Solar Simulator System (Power unit 69920, and Lamp 91192-1000, Newport Corporate, Irvine, Calif.) was used as the UVB emitter to achieve a UVB irradiation of 150 mJ/cm^2. Measurement of the irradiation was taken using an ILT-1400 Handheld, Portable Radiometer/Photometer (International Light Technologies, Inc., Peabody, Mass.) with a UVB detector (SEL240/T2ACT5, 235-307 nm, International Light Technologies, Inc.). After UVB irradiation, EpiDerm tissues were transferred back to the 6-well plate containing media and incubated at 37° C./5% CO2 for 6 hours. At the end of the incubation (6 hr post UVB irradiation), culture media were collected for the measurement of IL-8, and TNF-α concentration by MagPix (Millipore, HCYTOMAG-60K).

[3] = test system: Human primary dermal fibroblasts (HDFa); test: Intracellular NAD measurement in human primary dermal fibroblasts; settings: different concentrations, 3 hrs, absorbance at 405 nm
Description: Human primary dermal fibroblasts derived from adult human skins (HDFa, Life technologies, Grand Island, N.Y., Passage 2-4) were grown in Medium 106 (Life Technologies) supplemented with Low Serum Growth Supplement (LSGS) (Life Technologies) and seeded in 12-well plates with density at 2×10^5 cells per well and 2 ml of culture medium in each well.
Stock solution of dihydronicotinamide riboside (NRH, GSK3008320A, GSK, RTP, NC) was prepared in ethanol at 100 mM (25.6 mg/ml) and stored at −20° C. Cells were treated with different concentrations of NRH for 3 hrs, washed twice with PBS containing 5 mM EDTA, and then subject to Nicotinamide adenine dinucleotide (NAD) measurement. In brief, acetonitrile (ACN) lysis buffer (Ammonium Acetate (50 mM) and 90% acetonitrile) was added to each well (200 μl/well) to lyse the cells at RT for 5-10 mins by gently rotating on a culture plate shaker at a low speed. […] At the end of incubation, the supernatant (200 μl) of the reaction solution from each well was transferred to each well of a 96-well plate and absorbance was read twice in the 96-well plate at 405 nm using a plate reader (Spectra Maxplus, Molecular Devices, Sunnyvale, Calif.). […]

## NC(=O)C1=CN([C@@H]2O[C@H](CO)[C@@H](O)[C@H]2O)C=CC1 [NRH, dihydronicotinamide riboside]
[1]; HaCaT in DMEM medium with Vit B3, 450 μM, 3 hrs
  NAD levels elevation: ~6 fold
[1]; HaCaT keratinocytes, different concentrations, 3 hrs, absorbance at 405 nm
  NAD level: dose-dependently increases NAD; also recorded: dose-dependently increases NAD^+
[1]; HaCaT, 150 μM, 6 and 16 hrs
  NAD boosting activity: consistently showed strong activity on NAD elevation
[2]
  UVB-induced IL-8: inhibited; also recorded: reduces
  UVB-induced TNF-α: inhibited; also recorded: reduces
[3]
  NAD level: dose-dependently increases NAD; also recorded: dose-dependently increases NAD^+
